Data on 22 compounds can be found in ChEMBL document CHEMBL4219180, “Dibenzofuran, dibenzothiophene and N-methyl carbazole tethered 2-aminothiazoles and their cinnamamides as potent inhibitors of Mycobacterium tuberculosis” (Bioorg Med Chem Lett, 2018).

Broadly, the MIC is the lowest concentration that inhibits growth of the organism. Lower therefore signals a more susceptible organism.

In brackets after ≈: the same amount, converted by molar mass.

Series [1] relates to Mycobacterium tuberculosis. Briefly: Antimycobacterial activity against Mycobacterium tuberculosis H37Rv ATCC 27294 after 28 days by agar dilution method. In kind it is functional. As to conditions: H37Rv ATCC 27294, 672 h. (In general: In agar dilution the substance is mixed into plates at graded concentrations.)
Series [2] can be described thus: Growth inhibition of HEK293T cells at 50 ug/ml after 72 hrs by MTT assay. As to conditions: human, read-out: GI. In kind it is cell-based, HEK-293T. On the technique in general: Tetrazolium assays rely on reduction of a dye to a coloured formazan, in cell work by metabolically active cells.
Series [3] relates to Mycobacterium tuberculosis. Briefly: Antimycobacterial activity against Mycobacterium tuberculosis. Format: functional.

As to `Cn1c2ccccc2c2cc(-c3csc(NC(=O)/C=C/c4ccc(Br)cc4)n3)ccc21`, the MIC in series [1] was determined as 0.78 µg/mL (≈ 1.6 µM). Moreover, in series [2], the inhibition at 72 h, 50 ug/ml came out at 12.1%. Consider `NC(=O)c1cnccn1` [PYRAZINAMIDE], for which it took 50 µg/mL (≈ 406 µM) to inhibit growth in series [1] (MIC). With `Cn1c2ccccc2c2cc(-c3csc(NC(=O)/C=C/c4ccccc4)n3)ccc21`, in series [1], it took 50 µg/mL (≈ 122 µM) to inhibit growth (MIC). For the same compound, the inhibition at 72 h, 50 ug/ml in series [2] was determined as 14.3%.

In turn, `O=C(/C=C/c1ccc(Br)cc1)Nc1nc(-c2ccc3sc4ccccc4c3c2)cs1` registered an MIC in series [1] of 6.25 µg/mL (≈ 12.7 µM). In addition, in series [2], the inhibition at 72 h, 50 ug/ml was 28.3%. Taken in the same sequence, the figures for `CC(C)c1ccc(/C=C/C(=O)Nc2nc(-c3ccc4sc5ccccc5c4c3)cs2)cc1` were 0.78 µg/mL (≈ 1.72 µM) and 43.1%.

`Cc1ccc(/C=C/C(=O)Nc2nc(-c3ccc4sc5ccccc5c4c3)cs2)cc1`: in series [1], the MIC is 50 µg/mL (≈ 117 µM). Further, the inhibition at 72 h, 50 ug/ml in series [2] worked out at 48%. `CC(=O)C1=C(O)C=C2Oc3c(C(C)=O)c(O)c(C)c(O)c3C2(C)C1=O` (stereo not given): the MIC in series [3] was 12.5 µg/mL (≈ 36.3 µM). In series [1], `CC[C@@H](CO)NCCN[C@@H](CC)CO` [ETHAMBUTOL] displayed an MIC of 3.13 µg/mL (≈ 15.3 µM). In turn, `Nc1nc(-c2ccc3sc4ccccc4c3c2)cs1` came in with an MIC in series [1] of 1.56 µg/mL (≈ 5.52 µM). In addition, the inhibition at 72 h, 50 ug/ml in series [2] was 56.7%. The corresponding values for `Cc1ccc(/C=C/C(=O)Nc2nc(-c3ccc4c(c3)c3ccccc3n4C)cs2)cc1` are 25 µg/mL (≈ 59 µM) and 19.4%. Taken in the same sequence, the figures for `O=C(/C=C/c1ccc(F)cc1)Nc1nc(-c2ccc3sc4ccccc4c3c2)cs1` were 0.78 µg/mL (≈ 1.81 µM) and 57.2%. The corresponding values for `O=C(/C=C/c1ccccc1)Nc1nc(-c2ccc3sc4ccccc4c3c2)cs1` are 50 µg/mL (≈ 121 µM) and 68.6%.

`Cc1ccc(/C=C/C(=O)Nc2nc(-c3ccc4oc5ccccc5c4c3)cs2)cc1` had an MIC in series [1] of 50 µg/mL (≈ 122 µM). The inhibition at 72 h, 50 ug/ml in series [2] was 51.3%. The corresponding values for `O=C(/C=C/c1ccc(F)cc1)Nc1nc(-c2ccc3oc4ccccc4c3c2)cs1` are 50 µg/mL (≈ 121 µM) and 36.8%.

The compound `CC(C)c1ccc(/C=C/C(=O)Nc2nc(-c3ccc4oc5ccccc5c4c3)cs2)cc1` yielded an MIC in series [1] of 6.25 µg/mL (≈ 14.3 µM). The inhibition at 72 h, 50 ug/ml in series [2] turned out to be 42.2%. The corresponding values for `O=C(/C=C/c1ccc(Br)cc1)Nc1nc(-c2ccc3oc4ccccc4c3c2)cs1` are 12.5 µg/mL (≈ 26.3 µM) and 68.6%. `NNC(=O)c1ccncc1` [ISONIAZID] yielded an MIC in series [1] of 0.1 µg/mL (≈ 0.729 µM).

Take `Cn1c2ccccc2c2cc(-c3csc(NC(=O)/C=C/c4ccc(F)cc4)n3)ccc21`: in series [1], the MIC was determined as 50 µg/mL (≈ 117 µM). Moreover, in series [2], the inhibition at 72 h, 50 ug/ml was found to be 23.8%. The corresponding values for `O=C(/C=C/c1ccccc1)Nc1nc(-c2ccc3oc4ccccc4c3c2)cs1` are 50 µg/mL (≈ 126 µM) and 52.6%. As for `CC(C)c1ccc(/C=C/C(=O)Nc2nc(-c3ccc4c(c3)c3ccccc3n4C)cs2)cc1`, the MIC in series [1] is 50 µg/mL (≈ 111 µM). In addition, in series [2], the inhibition at 72 h, 50 ug/ml came out at 62%. The corresponding values for `Cn1c2ccccc2c2cc(-c3csc(N)n3)ccc21` are 12.5 µg/mL (≈ 44.7 µM) and 38.1%. Taken in the same sequence, the figures for `Nc1nc(-c2ccc3oc4ccccc4c3c2)cs1` were 1.56 µg/mL (≈ 5.86 µM) and 48.1%.
